Results: PubChem BioAssay AID1845211 (Molecular Pharmacology Branch, DTP, NCI, 2023)
pIC50: −log10 of the molar value.

Tested on: NCI-H322M multicellular tumor spheroids, viability (% test/control)
Assay: Anticancer human tumor NCI-H322M cell line growth inhibition;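 for viability, T/C: spheroids exposed to compound for seven days before readout; 100% = DMSO vehicle control wells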
Settings: for pIC50: curve of first compound; for viability, T/C: stronger effect = lower value
Method in brief: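 Complex spheroids of malignant cells with endothelial cells and mesenchymal stem cells; agents alone or combined, from near clinical Cmax (or 10 microM if unknown) down in half-log steps, 0.25% DMSO final.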

[1] = second compound 0.003 µM, first compound 0.0316 µM
[2] = second compound 0.003 µM, first compound 0.1 µM
[3] = second compound 0.003 µM, first compound 0.316 µM
[4] = second compound 0.003 µM, first compound 1 µM
[5] = second compound 0.003 µM, first compound 3.16 µM
[6] = second compound 0.003 µM, first compound 10 µM
[7] = second compound 0.00949 µM, first compound 0.0316 µM
[8] = second compound 0.00949 µM, first compound 0.1 µM
[9] = second compound 0.00949 µM, first compound 0.316 µM
[10] = second compound 0.00949 µM, first compound 1 µM
[11] = second compound 0.00949 µM, first compound 3.16 µM
[12] = second compound 0.00949 µM, first compound 10 µM
[13] = second compound 0.03 µM, first compound 0.0316 µM
[14] = second compound 0.03 µM, first compound 0.1 µM
[15] = second compound 0.03 µM, first compound 0.316 µM
[16] = second compound 0.03 µM, first compound 1 µM
[17] = second compound 0.03 µM, first compound 3.16 µM
[18] = second compound 0.03 µM, first compound 10 µM
[19] = second compound 0.0949 µM, first compound 0.0316 µM
[20] = second compound 0.0949 µM, first compound 0.1 µM
[21] = second compound 0.0949 µM, first compound 0.316 µM
[22] = second compound 0.0949 µM, first compound 1 µM
[23] = second compound 0.0949 µM, first compound 3.16 µM
[24] = second compound 0.0949 µM, first compound 10 µM
[25] = second compound 0.3 µM, first compound 0.0316 µM
[26] = second compound 0.3 µM, first compound 0.1 µM
[27] = second compound 0.3 µM, first compound 0.316 µM
[28] = second compound 0.3 µM, first compound 1 µM
[29] = second compound 0.3 µM, first compound 3.16 µM
[30] = second compound 0.3 µM, first compound 10 µM

| SMILES | pIC50 (second compound 0.003 µM) | pIC50 (second compound 0.00949 µM) | pIC50 (second compound 0.03 µM) | pIC50 (second compound 0.0949 µM) | pIC50 (second compound 0.3 µM) | viability, T/C [1] [%] | viability, T/C [2] [%] | viability, T/C [3] [%] | viability, T/C [4] [%] | viability, T/C [5] [%] | viability, T/C [6] [%] | viability, T/C [7] [%] | viability, T/C [8] [%] | viability, T/C [9] [%] | viability, T/C [10] [%] | viability, T/C [11] [%] | viability, T/C [12] [%] | viability, T/C [13] [%] | viability, T/C [14] [%] | viability, T/C [15] [%] | other results |
| --- | --- | --- | --- | --- | --- | --- | --- | --- | --- | --- | --- | --- | --- | --- | --- | --- | --- | --- | --- | --- | --- |
| CC(C)n1c(=O)n(C)c2cnc3cc(F)c(-c4ccc(OCCCN5CCCCC5)nc4)cc3c21 + CC[C@@]1(O)C(=O)OCc2c1cc1n(c2=O)Cc2cc3c(CN(C)C)c(O)ccc3nc2-1 | < 5.00 | < 5.00 | < 5.00 | < 5.00 | < 5.00 | 73.3 | 81.4 | 80 | 75.9 | 77.4 | 73.2 | 73.2 | 72.8 | 77.3 | 75.3 | 85.1 | 71.4 | 67.2 | 73.8 | 65.3 | viability, T/C [16]: 72.5%; viability, T/C [17]: 73%; viability, T/C [18]: 70.2%; viability, T/C [19]: 58.8%; viability, T/C [20]: 56.5%; viability, T/C [21]: 69.3%; viability, T/C [22]: 65.2%; viability, T/C [23]: 67.2%; viability, T/C [24]: 68.6%; viability, T/C [25]: 53.3%; viability, T/C [26]: 50.3%; viability, T/C [27]: 54.7%; viability, T/C [28]: 62.6%; viability, T/C [29]: 61.6%; viability, T/C [30]: 55% |
| CC1COCCN1c1cc(-c2ccnn2C)c2ccnc(-c3ccn[nH]3)c2n1 (stereo not given) + CC[C@@]1(O)C(=O)OCc2c1cc1n(c2=O)Cc2cc3c(CN(C)C)c(O)ccc3nc2-1 | > 7.50 | > 7.50 | > 7.50 | > 7.50 | > 7.50 | 55.8 | 40.6 | 35 | 32.3 | 30.8 | 38.3 | 51.6 | 39.1 | 35.5 | 32.6 | 32.9 | 34.5 | 43.8 | 32.6 | 30.8 | viability, T/C [16]: 30.4%; viability, T/C [17]: 32.1%; viability, T/C [18]: 35.9%; viability, T/C [19]: 33.6%; viability, T/C [20]: 28.1%; viability, T/C [21]: 26.6%; viability, T/C [22]: 26.9%; viability, T/C [23]: 28.1%; viability, T/C [24]: 29.9%; viability, T/C [25]: 23.1%; viability, T/C [26]: 18.9%; viability, T/C [27]: 19.8%; viability, T/C [28]: 23.6%; viability, T/C [29]: 20.1%; viability, T/C [30]: 27.7% |
